{"source": "patent US20260262643A1", "about": "“HERBICIDAL BENZOXAZINES” (FMC CORPORATION, priority 2022, published 2026)", "key": {"[1]": {"tested_on": "barnyardgrass", "assay": "Test C preemergence", "type": "in vivo, Echinochloa crusgalli", "conditions": "0 to 100 scale (0 no effect, 100 complete control)", "method_in_brief": "(§1)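 Greenhouse herbicide screen, 10-day duration. Test chemicals in solvent/surfactant blend were sprayed onto soil at sowing (pre) or onto 2–10 cm seedlings at one to two leaves (post); injury scored visually against controls, 0 no effect to 100 complete control.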"}, "[2]": {"tested_on": "blackgrass", "assay": "Test C preemergence", "type": "in vivo, Alopecurus myosuroides", "conditions": "0 to 100 scale (0 no effect, 100 complete control)", "method_in_brief": "as §1"}, "[3]": {"tested_on": "corn", "assay": "Test C preemergence", "type": "in vivo, Zea mays", "conditions": "0 to 100 scale (0 no effect, 100 complete control)", "method_in_brief": "as §1"}, "[4]": {"tested_on": "green foxtail", "assay": "Test C preemergence", "type": "in vivo, Setaria viridis", "conditions": "0 to 100 scale (0 no effect, 100 complete control)", "method_in_brief": "as §1"}, "[5]": {"tested_on": "kochia", "assay": "Test C preemergence", "type": "in vivo, Bassia scoparia", "conditions": "0 to 100 scale (0 no effect, 100 complete control)", "method_in_brief": "as §1"}, "[6]": {"tested_on": "oat, wild", "assay": "Test C preemergence", "type": "in vivo, Avena fatua", "conditions": "0 to 100 scale (0 no effect, 100 complete control)", "method_in_brief": "as §1"}, "[7]": {"tested_on": "pigweed, palmer", "assay": "Test C preemergence", "type": "in vivo, Amaranthus palmeri", "conditions": "0 to 100 scale (0 no effect, 100 complete control)", "method_in_brief": "as §1"}, "[8]": {"tested_on": "ragweed", "assay": "Test C preemergence", "type": "in vivo, Ambrosia artemisiifolia", "conditions": "0 to 100 scale (0 no effect, 100 complete control)", "method_in_brief": "as §1"}, "[9]": {"tested_on": "ryegrass, Italian", "assay": "Test C preemergence", "type": "in vivo, Lolium multiflorum", "conditions": "0 to 100 scale (0 no effect, 100 complete control)", "method_in_brief": "as §1"}, "[10]": {"tested_on": "soybean", "assay": "Test C preemergence", "type": "in vivo, Glycine max", "conditions": "0 to 100 scale (0 no effect, 100 complete control)", "method_in_brief": "as §1"}, "[11]": {"tested_on": "wheat", "assay": "Test C preemergence", "type": "in vivo, Triticum aestivum", "conditions": "0 to 100 scale (0 no effect, 100 complete control)", "method_in_brief": "as §1"}, "[12]": {"tested_on": "barnyardgrass", "assay": "Test C postemergence", "type": "in vivo, Echinochloa crusgalli", "conditions": "10 days", "method_in_brief": "as §1"}, "[13]": {"tested_on": "blackgrass", "assay": "Test C postemergence", "type": "in vivo, Alopecurus myosuroides", "conditions": "10 days", "method_in_brief": "as §1"}, "[14]": {"tested_on": "corn", "assay": "Test C postemergence", "type": "in vivo, Zea mays", "conditions": "10 days", "method_in_brief": "as §1"}, "[15]": {"tested_on": "green foxtail", "assay": "Test C postemergence", "type": "in vivo, Setaria viridis", "conditions": "10 days", "method_in_brief": "as §1"}, "[16]": {"tested_on": "kochia", "assay": "Test C postemergence", "type": "in vivo, Bassia scoparia", "conditions": "10 days", "method_in_brief": "as §1"}, "[17]": {"tested_on": "oat, wild", "assay": "Test C postemergence", "type": "in vivo, Avena fatua", "conditions": "10 days", "method_in_brief": "as §1"}, "[18]": {"tested_on": "pigweed, palmer", "assay": "Test C postemergence", "type": "in vivo, Amaranthus palmeri", "conditions": "10 days", "method_in_brief": "as §1"}, "[19]": {"tested_on": "ragweed", "assay": "Test C postemergence", "type": "in vivo, Ambrosia artemisiifolia", "conditions": "10 days", "method_in_brief": "as §1"}, "[20]": {"tested_on": "ryegrass, Italian", "assay": "Test C postemergence", "type": "in vivo, Lolium multiflorum", "conditions": "10 days", "method_in_brief": "as §1"}, "[21]": {"tested_on": "soybean", "assay": "Test C postemergence", "type": "in vivo, Glycine max", "conditions": "10 days", "method_in_brief": "as §1"}, "[22]": {"tested_on": "wheat", "assay": "Test C postemergence", "type": "in vivo, Triticum aestivum", "conditions": "10 days", "method_in_brief": "as §1"}, "[23]": {"tested_on": "galium", "assay": "Test C postemergence", "type": "in vivo, Galium aparine", "conditions": "10 days", "method_in_brief": "as §1"}, "[24]": {"tested_on": "horseweed", "assay": "Test C postemergence", "type": "in vivo, Erigeron canadensis", "conditions": "10 days", "method_in_brief": "as §1"}, "[25]": {"tested_on": "barnyardgrass", "assay": "Test D flooded paddy test", "type": "in vivo, Echinochloa crus-galli", "conditions": "250 g ai/ha, applied to paddy water, visual rating after 13 to 14 days, scale 0 to 100 (0 no effect, 100 complete control)", "method_in_brief": "(§2)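 At the 2-leaf stage, floodwater 3 cm deep received the test compound; that depth persisted throughout. Plants scored visually 13 to 14 days on, 0 (no effect) to 100 (complete control), dash indicating no result.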"}, "[26]": {"tested_on": "ducksalad", "assay": "Test D flooded paddy test", "type": "in vivo, Heteranthera limosa", "conditions": "250 g ai/ha, applied to paddy water, visual rating after 13 to 14 days, scale 0 to 100 (0 no effect, 100 complete control)", "method_in_brief": "as §2"}, "[27]": {"tested_on": "rice", "assay": "Test D flooded paddy test", "type": "in vivo, Oryza sativa", "conditions": "250 g ai/ha, applied to paddy water, visual rating after 13 to 14 days, scale 0 to 100 (0 no effect, 100 complete control)", "method_in_brief": "as §2"}, "[28]": {"tested_on": "sedge, umbrella", "assay": "Test D flooded paddy test", "type": "in vivo, Cyperus difformis", "conditions": "250 g ai/ha, applied to paddy water, visual rating after 13 to 14 days, scale 0 to 100 (0 no effect, 100 complete control)", "method_in_brief": "as §2"}, "[29]": {"conditions": "Preemergence, 500 g ai/ha, visual rating after 10 days"}, "[30]": {"conditions": "Test C, preemergence, 125 g ai/ha"}, "[31]": {"conditions": "125 g ai/ha, postemergence, 0 to 100 scale, 0 no effect, 100 complete control"}, "[32]": {"conditions": "Postemergence, 500 g ai/ha, visual 0 to 100 scale (0 no effect, 100 complete control)"}}, "data": [{"smiles": "COc1c(C)cc(-n2cnc(C(C)C)n2)cc1C(=O)N1C[C@H](C)Oc2c(Cl)cccc21", "note": "[Compound 260]", "values": [{"measurement": "Plant response rating, Barnyardgrass", "setting": "[1]; [29]", "result": 90}, {"measurement": "Barnyardgrass plant response rating", "setting": "[1]; [30]", "result": 70}, {"measurement": "Plant response rating, Blackgrass", "setting": "[2]; [29]", "result": 80}, {"measurement": "Blackgrass plant response rating", "setting": "[2]; [30]", "result": 60}, {"measurement": "Plant response rating, Corn", "setting": "[3]; [29]", "result": 10}, {"measurement": "Corn plant response rating", "setting": "[3]; [30]", "result": 0}, {"measurement": "Plant response rating, Foxtail, Green", "setting": "[4]; [29]", "result": 100}, {"measurement": "Foxtail, Green plant response rating", "setting": "[4]; [30]", "result": 100}, {"measurement": "Plant response rating, Kochia", "setting": "[5]; [29]", "result": 80}, {"measurement": "Kochia plant response rating", "setting": "[5]; [30]", "result": 60}, {"measurement": "Plant response rating, Oat, Wild", "setting": "[6]; [29]", "result": 90}, {"measurement": "Oat, Wild plant response rating", "setting": "[6]; [30]", "result": 30}, {"measurement": "Plant response rating, Pigweed, Palmer", "setting": "[7]; [29]", "result": 100}, {"measurement": "Pigweed, Palmer plant response rating", "setting": "[7]; [30]", "result": 40}, {"measurement": "Plant response rating, Ragweed", "setting": "[8]; [29]", "result": 40}, {"measurement": "Ragweed plant response rating", "setting": "[8]; [30]", "result": 0}, {"measurement": "Plant response rating, Ryegrass, Italian", "setting": "[9]; [29]", "result": 90}, {"measurement": "Ryegrass, Italian plant response rating", "setting": "[9]; [30]", "result": 80}, {"measurement": "Plant response rating, Soybean", "setting": "[10]; [29]", "result": 40}, {"measurement": "Soybean plant response rating", "setting": "[10]; [30]", "result": 10}, {"measurement": "Plant response rating, Wheat", "setting": "[11]; [29]", "result": 20}, {"measurement": "Wheat plant response rating", "setting": "[11]; [30]", "result": 20}, {"measurement": "Plant response rating, Barnyardgrass", "setting": "[12]; [31]", "result": 10}, {"measurement": "Plant response rating, Barnyardgrass", "setting": "[12]; [32]", "result": 50}, {"measurement": "Plant response rating, Blackgrass", "setting": "[13]; [31]", "result": 20}, {"measurement": "Plant response rating, Blackgrass", "setting": "[13]; [32]", "result": 30}, {"measurement": "Plant response rating, Corn", "setting": "[14]; [31]", "result": 10}, {"measurement": "Plant response rating, Corn", "setting": "[14]; [32]", "result": 60}, {"measurement": "Plant response rating, Foxtail, Green", "setting": "[15]; [31]", "result": 10}, {"measurement": "Plant response rating, Foxtail, Green", "setting": "[15]; [32]", "result": 60}, {"measurement": "Plant response rating, Kochia", "setting": "[16]; [31]", "result": 60}, {"measurement": "Plant response rating, Kochia", "setting": "[16]; [32]", "result": 90}, {"measurement": "Plant response rating, Oat, Wild", "setting": "[17]; [31]", "result": 30}, {"measurement": "Plant response rating, Oat, Wild", "setting": "[17]; [32]", "result": 50}, {"measurement": "Plant response rating, Pigweed, Palmer", "setting": "[18]; [31]", "result": 10}, {"measurement": "Plant response rating, Pigweed, Palmer", "setting": "[18]; [32]", "result": 50}, {"measurement": "Plant response rating, Ragweed", "setting": "[19]; [31]", "result": 0}, {"measurement": "Plant response rating, Ragweed", "setting": "[19]; [32]", "result": 0}, {"measurement": "Plant response rating, Ryegrass, Italian", "setting": "[20]; [31]", "result": 60}, {"measurement": "Plant response rating, Ryegrass, Italian", "setting": "[20]; [32]", "result": 60}, {"measurement": "Plant response rating, Soybean", "setting": "[21]; [31]", "result": 100}, {"measurement": "Plant response rating, Soybean", "setting": "[21]; [32]", "result": 100}, {"measurement": "Plant response rating, Wheat", "setting": "[22]; [31]", "result": 20}, {"measurement": "Plant response rating, Wheat", "setting": "[22]; [32]", "result": 20}, {"measurement": "Plant response rating, Galium", "setting": "[23]; [31]", "result": 90}, {"measurement": "Plant response rating, Galium", "setting": "[23]; [32]", "result": 100}, {"measurement": "Plant response rating, Horseweed", "setting": "[24]; [31]", "result": 0}, {"measurement": "Plant response rating, Horseweed", "setting": "[24]; [32]", "result": 10}, {"measurement": "Plant response rating, Barnyardgrass (Flood)", "setting": "[25]", "result": 0}, {"measurement": "Plant response rating, Ducksalad (Flood)", "setting": "[26]", "result": 0}, {"measurement": "Plant response rating, Rice (Flood)", "setting": "[27]", "result": 0}, {"measurement": "Plant response rating, Sedge, Umbrella (Flood)", "setting": "[28]", "result": 0}]}]}
